Reference: ChEMBL document CHEMBL1148048, “Two new tryptophan-derived alkaloids from the Okinawan marine sponge Aplysina sp” (J Nat Prod, 1994)
In brackets after ≈: the same amount, converted by molar mass.

Assays:
[1] = test system: L1210; assay: Cytotoxicity against mouse L1210 cells; type: functional, cell-based
[2] = test system: KB; assay: Cytotoxicity against human KB cells; type: functional, cell-based
[3] = test system: KB; assay: Cytotoxicity against human KB cells at 20 ug/ml; type: functional

| SMILES | IC50 [1] [µg/mL] | IC50 [2] [µg/mL] | inhibition at 20 µg/mL [3] [%] |
| --- | --- | --- | --- |
| CN1C(=N)N(C)/C(=C/c2c[nH]c3ccccc23)C1=O [APLYSINOPSIN] | 2.3 (≈ 9.04 µM) | 6.4 (≈ 25.2 µM) |  |
| C/N=C1\NC(=O)/C(=C\c2c[nH]c3ccccc23)N1C [ISOPLYSIN A] | 11.5 (≈ 45.2 µM) |  | 31 |
| C/N=C1\N(C)C(=O)/C(=C\c2c[nH]c3ccccc23)N1C [METHYLAPLYSINOPSIN] | 3.5 (≈ 13 µM) | 6.7 (≈ 25 µM) |  |
